Measured values reported in patent US9212182B2, “Bicyclic sulfonamide compounds as sodium channel inhibitors” (AMGEN INC., priority 2013, dated 2015).

The molecules below were run against Nav 1.7 (Homo sapiens (Human), UniProt Q15858) (assay: in-vitro Nav 1.7 PX (IC50)). Details: in-vitro Nav 1.7 PX data.
Format: cell-based

Nav 1.7, sequence (Q15858 whole entry): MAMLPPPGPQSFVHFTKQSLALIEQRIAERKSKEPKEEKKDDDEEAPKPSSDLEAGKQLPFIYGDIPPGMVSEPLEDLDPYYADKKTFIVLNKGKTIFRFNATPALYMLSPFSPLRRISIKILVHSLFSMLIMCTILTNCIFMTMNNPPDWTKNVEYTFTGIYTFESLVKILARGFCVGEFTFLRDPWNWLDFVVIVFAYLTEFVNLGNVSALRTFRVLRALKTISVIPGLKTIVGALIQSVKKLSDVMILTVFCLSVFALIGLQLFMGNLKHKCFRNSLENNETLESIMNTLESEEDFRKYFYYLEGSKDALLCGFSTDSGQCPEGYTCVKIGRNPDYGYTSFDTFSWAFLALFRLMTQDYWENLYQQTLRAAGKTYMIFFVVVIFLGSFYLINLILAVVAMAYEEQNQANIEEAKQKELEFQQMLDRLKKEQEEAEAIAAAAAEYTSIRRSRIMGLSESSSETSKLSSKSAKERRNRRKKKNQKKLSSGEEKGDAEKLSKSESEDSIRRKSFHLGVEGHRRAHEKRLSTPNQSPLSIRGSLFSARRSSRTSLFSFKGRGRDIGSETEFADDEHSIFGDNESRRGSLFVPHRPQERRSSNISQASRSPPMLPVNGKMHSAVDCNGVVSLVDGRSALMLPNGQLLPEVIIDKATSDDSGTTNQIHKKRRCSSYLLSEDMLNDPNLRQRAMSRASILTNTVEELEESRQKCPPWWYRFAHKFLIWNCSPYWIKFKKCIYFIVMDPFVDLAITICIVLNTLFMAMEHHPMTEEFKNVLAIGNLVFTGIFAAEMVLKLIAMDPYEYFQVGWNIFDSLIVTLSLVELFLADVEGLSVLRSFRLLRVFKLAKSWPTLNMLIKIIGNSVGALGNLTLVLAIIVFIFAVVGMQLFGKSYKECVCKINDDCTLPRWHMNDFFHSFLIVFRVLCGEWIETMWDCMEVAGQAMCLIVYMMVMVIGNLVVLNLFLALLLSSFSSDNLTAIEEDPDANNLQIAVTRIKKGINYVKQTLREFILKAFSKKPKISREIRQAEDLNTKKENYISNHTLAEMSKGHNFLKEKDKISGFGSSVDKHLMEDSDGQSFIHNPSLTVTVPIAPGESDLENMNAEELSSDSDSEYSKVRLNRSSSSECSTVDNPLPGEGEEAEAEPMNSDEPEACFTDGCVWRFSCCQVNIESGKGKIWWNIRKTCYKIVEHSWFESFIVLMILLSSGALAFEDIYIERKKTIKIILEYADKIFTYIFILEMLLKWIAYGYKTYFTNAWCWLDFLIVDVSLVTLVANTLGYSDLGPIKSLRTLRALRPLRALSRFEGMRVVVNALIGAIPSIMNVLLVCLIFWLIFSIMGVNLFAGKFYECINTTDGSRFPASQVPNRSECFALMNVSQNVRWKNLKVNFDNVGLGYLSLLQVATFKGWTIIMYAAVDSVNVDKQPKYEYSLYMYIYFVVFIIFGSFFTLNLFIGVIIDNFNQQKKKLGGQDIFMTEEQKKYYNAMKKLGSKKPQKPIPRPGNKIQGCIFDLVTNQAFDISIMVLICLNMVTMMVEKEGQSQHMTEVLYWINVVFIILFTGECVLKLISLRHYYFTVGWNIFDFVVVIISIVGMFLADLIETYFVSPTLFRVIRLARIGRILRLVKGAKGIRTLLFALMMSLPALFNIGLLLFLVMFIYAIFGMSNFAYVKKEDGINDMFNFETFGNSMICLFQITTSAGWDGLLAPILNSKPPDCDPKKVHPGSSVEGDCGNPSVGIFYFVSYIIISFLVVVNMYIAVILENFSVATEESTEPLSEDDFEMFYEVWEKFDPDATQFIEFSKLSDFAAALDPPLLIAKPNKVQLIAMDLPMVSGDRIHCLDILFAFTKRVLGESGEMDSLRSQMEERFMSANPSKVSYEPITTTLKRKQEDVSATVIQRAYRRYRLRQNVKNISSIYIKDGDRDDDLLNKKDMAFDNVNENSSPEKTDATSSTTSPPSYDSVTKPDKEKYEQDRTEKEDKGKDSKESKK

| IC50 [µM] | SMILES |
| --- | --- |
| 0.013 | COc1cc(-c2ccc(F)c(C)c2)c(F)cc1-n1c(=O)ccc2cc(S(=O)(=O)Nc3ncco3)ccc21 [Example 943, 1-(2,4′-difluoro-5-methoxy-3′-methyl-4-biphenylyl)-N-1,3-oxazol-2-yl-2-oxo-1,2-dihydro-6-quinolinesulfonamide] |
| 0.027 | COc1cc(-c2ccc(F)c(C)c2)c(F)cc1-n1c(=O)ccc2cc(S(=O)(=O)Nc3ccnc(C)n3)ccc21 [Example 944, 1-(2,4′-difluoro-5-methoxy-3′-methyl-4-biphenylyl)-N-(2-methyl-4-pyrimidinyl)-2-oxo-1,2-dihydro-6-quinolinesulfonamide] |
| 0.034 | COc1cc(-c2ccc(F)c(C)c2)c(F)cc1-n1c(=O)ccc2cc(S(=O)(=O)Nc3cc(C)ncn3)ccc21 [Example 945, 1-(2,4′-difluoro-5-methoxy-3′-methyl-4-biphenylyl)-N-(6-methyl-4-pyrimidinyl)-2-oxo-1,2-dihydro-6-quinolinesulfonamide] |
| 0.024 | COc1cc(-c2cccc(C(F)(F)F)c2)ccc1-n1c(=O)ccc2cc(S(=O)(=O)Nc3cc(C)ncn3)ccc21 [Example 946, 1-(3-methoxy-3′-(trifluoromethyl)-4-biphenylyl)-N-(6-methyl-4-pyrimidinyl)-2-oxo-1,2-dihydro-6-quinolinesulfonamide] |
| 0.051 | COc1cc(-c2cccc(C(F)(F)F)c2)ccc1-n1c(=O)ccc2cc(S(=O)(=O)Nc3ccnc(C)n3)ccc21 [Example 947, 1-(3-methoxy-3′-(trifluoromethyl)-4-biphenylyl)-N-(2-methyl-4-pyrimidinyl)-2-oxo-1,2-dihydro-6-quinolinesulfonamide] |
| 0.1 | COc1cc(-c2ccc(F)c(C)c2)c(F)cc1-n1c(=O)ccc2cc(S(=O)(=O)Nc3nnc(C)s3)ccc21 [Example 948, 1-(2,4′-difluoro-5-methoxy-3′-methyl-4-biphenylyl)-N-(5-methyl-1,3,4-thiadiazol-2-yl)-2-oxo-1,2-dihydro-6-quinolinesulfonamide] |
| 1.24 | COc1cc(-c2cccc(C(F)(F)F)c2)ccc1-n1c(=O)ccc2cc(S(=O)(=O)Nc3cnc(C)cn3)ccc21 [Example 949, 1-(3-methoxy-3′-(trifluoromethyl)-4-biphenylyl)-N-(5-methyl-2-pyrazinyl)-2-oxo-1,2-dihydro-6-quinolinesulfonamide] |
| 0.099 | COc1cc(-c2cccc(C(F)(F)F)c2)ccc1-n1c(=O)ccc2cc(S(=O)(=O)Nc3cncc(C)n3)ccc21 [Example 950, 1-(3-methoxy-3′-(trifluoromethyl)-4-biphenylyl)-N-(6-methyl-2-pyrazinyl)-2-oxo-1,2-dihydro-6-quinolinesulfonamide] |
| 0.09 | COc1cc(-c2ccccc2F)c(F)cc1-n1c(=O)ccc2cc(S(=O)(=O)Nc3ccon3)ccc21 [Example 951, 1-(2,2′-difluoro-5-methoxy-4-biphenylyl)-N-3-isoxazolyl-2-oxo-1,2-dihydro-6-quinolinesulfonamide] |
| 0.062 | COc1cc(-c2ccccc2Cl)c(F)cc1-n1c(=O)ccc2cc(S(=O)(=O)Nc3ccon3)ccc21 [Example 952, 1-(2′-chloro-2-fluoro-5-methoxy-4-biphenylyl)-N-3-isoxazolyl-2-oxo-1,2-dihydro-6-quinolinesulfonamide] |
| 0.026 | COc1cc(-c2ccccc2C)c(F)cc1-n1c(=O)ccc2cc(S(=O)(=O)Nc3ccon3)ccc21 [Example 953, 1-(2-fluoro-5-methoxy-2′-methyl-4-biphenylyl)-N-3-isoxazolyl-2-oxo-1,2-dihydro-6-quinolinesulfonamide] |
| 0.071 | COc1ccc(-c2cc(OC)c(-n3c(=O)ccc4cc(S(=O)(=O)Nc5ccon5)ccc43)cc2F)cc1 [Example 954, 1-(2-fluoro-4′,5-dimethoxy-4-biphenylyl)-N-3-isoxazolyl-2-oxo-1,2-dihydro-6-quinolinesulfonamide] |
| 0.099 | COc1ccccc1-c1cc(OC)c(-n2c(=O)ccc3cc(S(=O)(=O)Nc4ccon4)ccc32)cc1F [Example 956, 1-(2-fluoro-2′,5-dimethoxy-4-biphenylyl)-N-3-isoxazolyl-2-oxo-1,2-dihydro-6-quinolinesulfonamide] |
| 0.023 | COc1cc(F)cc(-c2cc(OC)c(-n3c(=O)ccc4cc(S(=O)(=O)Nc5ncccn5)ccc43)cc2C)c1 [Example 957, 1-(3′-fluoro-5,5′-dimethoxy-2-methyl-4-biphenylyl)-2-oxo-N-2-pyrimidinyl-1,2-dihydro-6-quinolinesulfonamide] |
| 0.028 | COc1cc(-c2ccc(F)c(F)c2)c(C)cc1-n1c(=O)ccc2cc(S(=O)(=O)Nc3ncccn3)ccc21 [Example 958, 1-(3′,4′-difluoro-5-methoxy-2-methyl-4-biphenylyl)-2-oxo-N-2-pyrimidinyl-1,2-dihydro-6-quinolinesulfonamide] |
| 0.036 | COc1cc(-c2cc(OC)c(-n3c(=O)ccc4cc(S(=O)(=O)Nc5ncccn5)ccc43)cc2C)ccc1F [Example 960, 1-(4′-fluoro-3′,5-dimethoxy-2-methyl-4-biphenylyl)-2-oxo-N-2-pyrimidinyl-1,2-dihydro-6-quinolinesulfonamide] |

| IC50 [µM] | SMILES |
| --- | --- |
| 0.027 | CCOc1cccc(-c2cc(OC)c(-n3c(=O)ccc4cc(S(=O)(=O)Nc5ncccn5)ccc43)cc2C)c1 [Example 963, 1-(3′-ethoxy-5-methoxy-2-methyl-4-biphenylyl)-2-oxo-N-2-pyrimidinyl-1,2-dihydro-6-quinolinesulfonamide] |
| 0.246 | COc1cc(-c2cccc(OC)c2F)c(C)cc1-n1c(=O)ccc2cc(S(=O)(=O)Nc3ncccn3)ccc21 [Example 964, 1-(2′-fluoro-3′,5-dimethoxy-2-methyl-4-biphenylyl)-2-oxo-N-2-pyrimidinyl-1,2-dihydro-6-quinolinesulfonamide] |
| 0.074 | COc1ccc(F)c(-c2cc(OC)c(-n3c(=O)ccc4cc(S(=O)(=O)Nc5ncccn5)ccc43)cc2C)c1 [Example 965, 1-(2′-fluoro-5,5′-dimethoxy-2-methyl-4-biphenylyl)-2-oxo-N-2-pyrimidinyl-1,2-dihydro-6-quinolinesulfonamide] |
| 0.064 | COc1cc(-c2cc(OC)c(-n3c(=O)ccc4cc(S(=O)(=O)Nc5ncccn5)ccc43)cc2C)ccc1C [Example 966, 1-(3′,5-dimethoxy-2,4′-dimethyl-4-biphenylyl)-2-oxo-N-2-pyrimidinyl-1,2-dihydro-6-quinolinesulfonamide] |
| 0.014 | COc1cc(C)cc(-c2cc(OC)c(-n3c(=O)ccc4cc(S(=O)(=O)Nc5ncccn5)ccc43)cc2C)c1 [Example 967, 1-(3′,5-dimethoxy-2,5′-dimethyl-4-biphenylyl)-2-oxo-N-2-pyrimidinyl-1,2-dihydro-6-quinolinesulfonamide] |
| 0.057 | COc1cc(-c2cccc(OC)c2C)c(C)cc1-n1c(=O)ccc2cc(S(=O)(=O)Nc3ncccn3)ccc21 [Example 968, 1-(3′,5-dimethoxy-2,2′-dimethyl-4-biphenylyl)-2-oxo-N-2-pyrimidinyl-1,2-dihydro-6-quinolinesulfonamide] |
| 0.024 | COc1cc(-c2cc(C)ccc2F)c(C)cc1-n1c(=O)ccc2cc(S(=O)(=O)Nc3ncccn3)ccc21 [Example 970, 1-(2′-fluoro-5-methoxy-2,5′-dimethyl-4-biphenylyl)-2-oxo-N-2-pyrimidinyl-1,2-dihydro-6-quinolinesulfonamide] |
| 0.021 | COc1cc(-c2ccc(C)c(Cl)c2)c(F)cc1-n1c(=O)ccc2cc(S(=O)(=O)Nc3ccon3)c(F)cc21 [Example 979, 1-(3′-chloro-2-fluoro-5-methoxy-4′-methyl-4-biphenylyl)-7-fluoro-N-3-isoxazolyl-2-oxo-1,2-dihydro-6-quinolinesulfonamide] |
| 0.022 | COc1cc(-c2cccc(C(F)(F)F)c2)c(F)cc1-n1c(=O)ccc2cc(S(=O)(=O)Nc3ccon3)c(F)cc21 [Example 980, 7-fluoro-1-(2-fluoro-5-methoxy-3′-(trifluoromethyl)-4-biphenylyl)-N-3-isoxazolyl-2-oxo-1,2-dihydro-6-quinolinesulfonamide] |
| 0.038 | COc1cc(-c2cccc(C(F)(F)F)c2)ccc1-n1c(=O)ccc2cc(S(=O)(=O)Nc3ncccn3)c(F)cc21 [Example 982, 7-fluoro-1-(3-methoxy-3′-(trifluoromethyl)-4-biphenylyl)-2-oxo-N-2-pyrimidinyl-1,2-dihydro-6-quinolinesulfonamide] |
| 8.61 | COc1cc(Br)c(F)cc1-n1c(=O)ccc2cc(S(=O)(=O)Nc3cccc(C)n3)ccc21 [Example 989, 1-(4-bromo-5-fluoro-2-methoxyphenyl)-N-(6-methyl-2-pyridinyl)-2-oxo-1,2-dihydro-6-quinolinesulfonamide] |
| 0.052 | COc1cc(F)cc(-c2ccc(-n3c(=O)ccc4cc(S(=O)(=O)Nc5ncccn5)ccc43)c(OC)c2)c1 [Example 996, 1-(3′-fluoro-3,5′-dimethoxy-4-biphenylyl)-2-oxo-N-2-pyrimidinyl-1,2-dihydro-6-quinolinesulfonamide] |
| 0.066 | COc1cc(F)cc(-c2ccc(-n3c(=O)ccc4cc(S(=O)(=O)Nc5cccnn5)ccc43)c(OC)c2)c1 [Example 997, 1-(3′-fluoro-3,5′-dimethoxy-4-biphenylyl)-2-oxo-N-3-pyridazinyl-1,2-dihydro-6-quinolinesulfonamide] |
| 0.089 | COc1cc(F)cc(-c2ccc(-n3c(=O)ccc4cc(S(=O)(=O)Nc5ncc(F)cn5)ccc43)c(OC)c2)c1 [Example 998, 1-(3′-fluoro-3,5′-dimethoxy-4-biphenylyl)-N-(5-fluoro-2-pyrimidinyl)-2-oxo-1,2-dihydro-6-quinolinesulfonamide] |
| 1.26 | COc1cc(F)cc(-c2ccc(-n3c(=O)ccc4cc(S(=O)(=O)Nc5ccnc(C)n5)ccc43)c(OC)c2)c1 [Example 1003, 1-(3′-fluoro-3,5′-dimethoxy-4-biphenylyl)-N-(2-methyl-4-pyrimidinyl)-2-oxo-1,2-dihydro-6-quinolinesulfonamide] |
| 0.219 | COc1cc(F)cc(-c2ccc(-n3c(=O)ccc4cc(S(=O)(=O)Nc5cc(C)ncn5)ccc43)c(OC)c2)c1 [Example 1004, 1-(3′-fluoro-3,5′-dimethoxy-4-biphenylyl)-N-(6-methyl-4-pyrimidinyl)-2-oxo-1,2-dihydro-6-quinolinesulfonamide] |
